Test results as given in the supplement of paper PMC10307832.

Columns and labels:
Assay in all cases: relative viability (nuclei count vs DMSO), 5 days (fraction); higher = more cells survive
MK-8033 + Tozasertib = compound: Cn1cc(-c2cnc3ccc4ccc(CS(=O)(=O)NCc5ccccn5)cc4c(=O)c3c2)cn1 [MK-8033] + Cc1cc(Nc2cc(N3CCN(C)CC3)nc(Sc3ccc(NC(=O)C4CC4)cc3)n2)n[nH]1 [Tozasertib] (partner 0.1 µM)
Procedure, shortened: (§1)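 Values are medians from duplicate plates. Each reflects relative viability, defined as the nuclei count of treated wells over that of vehicle wells. Lung cancer cell lines in 1536-well plates were pin-tool dosed one day after seeding with one drug alone or with a fixed anchor-drug dose plus five library-drug doses (not always all listed) in √10 steps, then fixed, stained and imaged at 4× after 5 days.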

RU-SKI 43 + Crizotinib = compound: CC[C@@H](C)CNCC(=O)N1CCC2=C([C@@H]1COC3=CC=CC(=C3)C)C=CS2 [RU-SKI 43] + C[C@@H](Oc1cc(-c2cnn(C3CCNCC3)c2)cnc1N)c1c(Cl)ccc(F)c1Cl [Crizotinib] (partner 1 µM)
Procedure, shortened: as §1

MK-8033 + Linsitinib = compound: Cn1cc(-c2cnc3ccc4ccc(CS(=O)(=O)NCc5ccccn5)cc4c(=O)c3c2)cn1 [MK-8033] + C[C@]1(O)C[C@@H](c2nc(-c3ccc4ccc(-c5ccccc5)nc4c3)c3c(N)nccn32)C1 [Linsitinib] (partner 1 µM)
Procedure, shortened: as §1

Irinotecan + Lapatinib = compound: CCc1c2c(nc3ccc(OC(=O)N4CCC(N5CCCCC5)CC4)cc13)-c1cc3c(c(=O)n1C2)COC(=O)[C@]3(O)CC [Irinotecan] + CS(=O)(=O)CCNCc1ccc(-c2ccc3ncnc(Nc4ccc(OCc5cccc(F)c5)c(Cl)c4)c3c2)o1 [Lapatinib] (partner 2 µM)
Procedure, shortened: as §1

Row | Cell Line | relative viability (MK-8033 + Tozasertib; first compound 0.02 µM) | relative viability (MK-8033 + Tozasertib; first compound 0.06325 µM) | relative viability (MK-8033 + Tozasertib; first compound 0.2 µM) | relative viability (MK-8033 + Tozasertib; first compound 0.6325 µM) | relative viability (MK-8033 + Tozasertib; first compound 2 µM) | relative viability (RU-SKI 43 + Crizotinib; first compound 0.1 µM) | relative viability (RU-SKI 43 + Crizotinib; first compound 1 µM) | relative viability (RU-SKI 43 + Crizotinib; first compound 3.162 µM) | relative viability (RU-SKI 43 + Crizotinib; first compound 10 µM) | relative viability (MK-8033 + Linsitinib; first compound 0.02 µM) | relative viability (MK-8033 + Linsitinib; first compound 0.06325 µM) | relative viability (MK-8033 + Linsitinib; first compound 0.2 µM) | relative viability (MK-8033 + Linsitinib; first compound 0.6325 µM) | relative viability (MK-8033 + Linsitinib; first compound 2 µM) | relative viability (Irinotecan + Lapatinib; first compound 0.6325 µM) | relative viability (Irinotecan + Lapatinib; first compound 2 µM) | relative viability (Irinotecan + Lapatinib; first compound 6.325 µM) | relative viability (Irinotecan + Lapatinib; first compound 20 µM) | relative viability (RU-SKI 43 + Crizotinib; first compound 0.3162 µM)
1 | LCLC-97TM1 | 0.2 | 0.237 | 0.241 | 0.223 | 0.216 | 0.424 | 0.331 | 0.267 | 0.287 | 0.173 | 0.149 | 0.202 | 0.181 | 0.207 | 0.317 | 0.263 | 0.156 | 0.173 | 
2 | LK-2 | 0.174 |  | 0.179 | 0.182 | 0.198 | 0.206 | 0.256 |  | 0.199 | 0.642 | 0.509 | 0.527 | 0.317 | 0.508 | 0.852 | 1.33 | 0.411 | 0.32 | 0.219
3 | LOU-NH91 | 0.653 | 0.406 | 0.644 | 0.644 | 0.678 | 0.795 | 0.719 | 0.754 | 0.715 | 0.93 |  | 0.912 | 0.89 | 0.992 | 0.685 | 0.8 | 0.414 | 0.402 | 0.818
4 | LU99A | 0.268 | 0.262 | 0.281 | 0.268 | 0.269 | 0.542 | 0.595 | 0.6 | 0.469 | 0.541 | 0.517 | 0.537 | 0.479 | 0.478 | 0.367 | 0.309 | 0.203 | 0.197 | 0.565
5 | LXF-289 | 0.187 | 0.148 | 0.157 | 0.203 | 0.179 | 0.815 | 0.806 | 0.83 | 0.736 | 0.926 | 0.944 | 1.01 | 0.96 | 0.976 | 0.881 | 0.883 | 0.315 | 0.236 | 0.784
6 | NCI-H23 | 0.362 | 0.399 | 0.253 | 0.415 | 0.429 | 0.472 | 0.451 | 0.598 | 0.39 | 0.508 | 0.576 | 0.407 | 0.599 | 0.508 | 0.653 | 0.466 | 0.277 | 0.271 | 0.42
7 | NCI-H322M | 0.522 | 0.464 | 0.427 | 0.449 | 0.44 | 1.19 | 0.941 | 0.979 | 0.733 | 0.964 | 0.809 | 0.869 | 0.996 | 0.692 | 0.585 | 0.654 | 0.328 | 0.363 | 1.04
8 | NCI-H358 | 0.0969 | 0.0932 | 0.1 | 0.0977 | 0.106 | 0.604 | 0.512 | 0.578 | 0.35 | 0.826 | 0.704 | 0.731 | 0.658 | 0.651 | 0.406 | 0.47 | 0.327 | 0.21 | 0.484
9 | NCI-H460 | 0.392 | 0.443 | 0.387 | 0.377 | 0.108 | 0.869 | 0.91 | 1.01 | 0.551 | 0.903 | 0.702 | 0.686 | 0.85 | 0.684 | 0.287 | 0.475 | 0.0664 | 0.0537 | 1.2
10 | NCI-H520 | 0.408 | 0.453 | 0.433 | 0.485 | 0.469 | 0.858 | 1.09 | 0.706 | 0.616 | 0.994 | 0.876 | 0.844 | 0.925 | 0.991 | 0.604 | 0.664 | 0.28 | 0.2 | 0.874
11 | NCI-H596 | 0.802 | 0.898 | 0.859 | 0.944 | 0.853 | 0.998 | 0.987 | 1.06 | 1.03 | 0.978 | 1.1 | 1.04 | 1.1 | 1.09 | 1.11 | 1.03 | 0.613 | 0.579 | 0.904
12 | NCI-H647 | 0.276 | 0.212 | 0.258 | 0.0983 | 0.282 | 1.29 | 1.15 | 1.14 | 0.833 | 1.17 | 0.88 | 0.994 | 1.14 | 1.04 | 0.865 | 0.44 | 0.199 | 0.138 | 1.23
13 | NCI-H650 | 0.701 | 0.598 | 0.706 | 0.827 | 0.679 | 0.76 | 0.694 |  | 0.619 | 0.868 | 0.91 | 0.85 | 0.805 | 0.773 | 0.757 | 0.693 | 0.275 | 0.31 | 0.622
14 | NCI-H661 | 0.37 | 0.328 | 0.359 | 0.35 | 0.345 | 0.887 | 0.984 | 0.942 | 0.938 | 0.55 | 0.5 | 0.53 | 0.59 | 0.507 | 0.478 | 0.357 | 0.314 | 0.296 | 0.943
15 | NCI-H727 | 0.577 |  | 0.714 | 0.465 | 0.61 | 0.688 | 0.796 | 0.872 | 0.7 | 0.284 | 0.275 | 0.253 | 0.3 | 0.266 | 0.339 | 0.503 | 0.445 | 0.369 | 0.975
16 | NCI-H838 | 0.297 | 0.272 | 0.281 | 0.266 | 0.236 | 0.904 | 0.826 | 0.794 | 0.75 | 0.988 | 0.98 | 0.985 | 0.98 | 0.953 | 1.03 | 0.874 | 0.399 | 0.161 | 0.98
17 | NCI-H1355 | 0.572 | 0.524 | 0.513 | 0.526 | 0.398 | 1.07 | 1.17 | 1.26 | 1.01 | 0.735 | 0.7 | 0.762 | 0.795 | 0.828 | 0.534 | 0.909 | 0.264 | 0.242 | 1.14
